The source of these data is patent US20240368118A1, “CEREBLON BINDING COMPOUNDS, COMPOSITIONS THEREOF, AND METHODS OF TREATMENT THEREWITH” (CELGENE CORPORATION, priority 2021, published 2024).

SMILES strings stand for the structures. Structures can show the parent of a compound that is named as a salt. Where only a bound is given, the exact number is not on record here.

This assay has as its target T1, AR (Homo sapiens, UniProt P10275).
T1 construct: endogenous in cells; host or cells: VCaP cells
T1 sequence (P10275 1-920): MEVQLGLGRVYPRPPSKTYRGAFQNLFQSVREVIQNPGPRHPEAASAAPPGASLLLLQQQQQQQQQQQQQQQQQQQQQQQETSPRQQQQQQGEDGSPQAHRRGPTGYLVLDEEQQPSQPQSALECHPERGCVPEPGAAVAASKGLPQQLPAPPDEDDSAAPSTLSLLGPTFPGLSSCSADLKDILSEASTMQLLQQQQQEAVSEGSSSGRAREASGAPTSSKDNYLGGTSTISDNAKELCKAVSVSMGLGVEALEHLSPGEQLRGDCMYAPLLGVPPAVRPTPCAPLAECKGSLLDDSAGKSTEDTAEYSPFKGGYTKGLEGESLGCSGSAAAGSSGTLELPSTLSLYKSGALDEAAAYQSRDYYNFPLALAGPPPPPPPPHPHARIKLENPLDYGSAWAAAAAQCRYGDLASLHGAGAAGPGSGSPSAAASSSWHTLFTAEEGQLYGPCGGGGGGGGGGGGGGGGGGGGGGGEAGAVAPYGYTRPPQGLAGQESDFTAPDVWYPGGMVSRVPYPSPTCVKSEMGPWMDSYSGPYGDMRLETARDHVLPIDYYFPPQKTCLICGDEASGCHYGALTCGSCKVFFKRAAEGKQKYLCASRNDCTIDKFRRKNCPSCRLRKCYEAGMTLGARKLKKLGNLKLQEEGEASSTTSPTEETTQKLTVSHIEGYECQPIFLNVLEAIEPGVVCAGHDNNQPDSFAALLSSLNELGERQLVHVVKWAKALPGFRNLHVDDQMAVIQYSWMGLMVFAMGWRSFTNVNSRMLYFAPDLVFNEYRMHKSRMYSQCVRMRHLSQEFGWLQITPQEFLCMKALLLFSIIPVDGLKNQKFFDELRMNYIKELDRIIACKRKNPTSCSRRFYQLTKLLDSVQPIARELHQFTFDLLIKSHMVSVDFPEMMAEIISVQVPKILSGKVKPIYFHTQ
Put plainly: VCAP AR Degradation Assay. Format: cell-based. The note with it: VCaP cells, 24 h; for DC50: AR ELISA, concentration when AR level = 50% of DMSO control; for Ymin: lowest AR level normalized to DMSO control, class symbols. How it is done: VCAP AR Degradation Assay. Test compounds were pre-dispensed into a Corning CellBind 96-well clear bottom plate (Cat #3300) using an acoustic dispenser to make a 10-point concentration series at 1:3 dilution for each compound. The final top concentration of each compound was 5 μM. DMSO at a final concentration of 0.1% was used as a control. VCaP cells cultured in DMEM with 8% fetal bovine serum (FBS) were seeded at 50K cells per well in a 200 μL volume into the compound plate and incubated at 37° C. in a C02 incubator for 24 h. The medium was carefully removed from the cells and the plate was placed on ice. One hundred μL of ice-cold 1× cell lysis buffer from Cell Signaling Technologies (Cat #9803) was added to each well of the cells and the plate was incubated at 4° C. on a shaker for 1 h. Fifteen μL of cell lysate was used for AR ELISA detection using a PathScan Total Sandwich AR ELISA kit (Cell Signaling Technology, Cat #12580). AR levels in compound-treated wells were normalized to that of DMSO control and expressed as percent of control (PoC) (y). A Four Parameter Logistic Model (Sigmoidal Dose-Response Model) was used to determine the compound's DC50, and EC50, using the following equation: […]
The lowest measured AR level normalized to DMSO control in response to compound treatment, termed Y value, was used to characterize the compound-mediated AR degradation efficiency.
(In general: ELISA stands for enzyme-linked immunosorbent assay.)

As a reminder, the DC50 is the concentration giving 50% degradation. Higher therefore signals a less potent degrader.

`C[C@@H]1CN(CCO[C@H]2CC[C@H](N3C(=S)N(c4ccc(C#N)c(C(F)(F)F)c4)C(=O)C3(C)C)CC2)C[C@H](C)N1CC(=O)Nc1ccc(C2(C)CCC(=O)NC2=O)cc1` (single isomer, unassigned) [Cmpd 9, hydrochloride]: the DC50 lay in the range of 100 to 10000 nM and the Ymin entry is given as “*** (30%<Y<80%)”.

As for `C[C@@H]1CN(CCO[C@H]2CC[C@H](N3C(=S)N(c4ccc(C#N)c(C(F)(F)F)c4)C(=O)C3(C)C)CC2)C[C@H](C)N1CC(=O)Nc1ccc(C2(C)CCC(=O)NC2=O)cc1` (single isomer, unassigned) [Cmpd 10, hydrochloride], the DC50 is 100 to 10000 nM and the Ymin result was “*** (30%<Y<80%)”.

For the compound `C[C@@H]1CN(CCO[C@H]2CC[C@H](N3C(=S)N(c4ccc(C#N)c(C(F)(F)F)c4)C(=O)C3(C)C)CC2)C[C@H](C)N1CC(=O)Nc1ccc(N2CCC(=O)NC2=O)cc1` [Cmpd 1, 2-((2S,6R)-4-(2-((trans-4-(3-(4-Cyano-3-(trifluoromethyl)phenyl)-5,5-dimethyl-4-oxo-2-thioxoimidazolidin-1-yl)cyclohexyl)oxy)ethyl)-2,6-dimethylpiperazin-1-yl)-N-(4-(2,4-dioxotetrahydropyrimidin-1(2H)-yl)phenyl)acetamide hydrochloride], the half-maximal degradation concentration (DC50) was 100 to 10000 nM and the Ymin entry is on record as “*** (30%<Y<80%)”.

Take `C[C@@H]1CN(CCO[C@H]2CC[C@H](N3C(=S)N(c4ccc(C#N)c(C(F)(F)F)c4)C(=O)C3(C)C)CC2)C[C@H](C)N1CC(=O)Nc1ccc(C2CCC(=O)NC2=O)cc1` (stereo partly drawn) [Cmpd 2, 2-((2S,6R)-4-(2-((trans-4-(3-(4-Cyano-3-(trifluoromethyl)phenyl)-5,5-dimethyl-4-oxo-2-thioxoimidazolidin-1-yl)cyclohexyl)oxy)ethyl)-2,6-dimethylpiperazin-1-yl)-N-(4-(2,6-dioxopiperidin-3-yl)phenyl)acetamide hydrochloride]: the DC50 is 5 to 15 nM and the Ymin result is on record as “*** (30%<Y<80%)”.

Take `C[C@@H]1CN(CCC[C@H]2CC[C@H](N3C(=S)N(c4ccc(C#N)c(C(F)(F)F)c4)C(=O)C3(C)C)CC2)C[C@H](C)N1CC(=O)Nc1ccc(C2CCC(=O)NC2=O)cc1` (stereo partly drawn) [Cmpd 3, 2-((2R,6S)-4-(3-(trans-4-(3-(4-Cyano-3-(trifluoromethyl)phenyl)-5,5-dimethyl-4-oxo-2-thioxoimidazolidin-1-yl)cyclohexyl)propyl)-2,6-dimethylpiperazin-1-yl)-N-(4-(2,6-dioxopiperidin-3-yl)phenyl)acetamide hydrochloride]: the half-maximal degradation concentration (DC50) was 5 to 15 nM and the Ymin entry was “** (20%<Y≤30%)”.

Turning to `C[C@@H]1CN(CCO[C@H]2CC[C@H](N3C(=S)N(c4ccc(C#N)c(Cl)c4)C(=O)C3(C)C)CC2)C[C@H](C)N1CC(=O)Nc1ccc(C2CCC(=O)NC2=O)cc1` (stereo partly drawn) [Cmpd 4, 2-((2R,6S)-4-(2-((trans-4-(3-(3-Chloro-4-cyanophenyl)-5,5-dimethyl-4-oxo-2-thioxoimidazolidin-1-yl)cyclohexyl)oxy)ethyl)-2,6-dimethylpiperazin-1-yl)-N-(4-(2,6-dioxopiperidin-3-yl)phenyl)acetamide hydrochloride], the DC50 is at most 5 nM and the Ymin result is reported as “*** (30%<Y<80%)”.

Take `C[C@@H]1CN(CCO[C@H]2CC[C@H](N3C(=S)N(c4ccc(C#N)c(C(F)(F)F)c4)C(=O)C3(C)C)CC2)C[C@H](C)N1CCC(=O)Nc1ccc(C2CCC(=O)NC2=O)cc1` (stereo partly drawn) [Cmpd 5, 3-((2R,6S)-4-(2-((trans-4-(3-(4-Cyano-3-(trifluoromethyl)phenyl)-5,5-dimethyl-4-oxo-2-thioxoimidazolidin-1-yl)cyclohexyl)oxy)ethyl)-2,6-dimethylpiperazin-1-yl)-N-(4-(2,6-dioxopiperidin-3-yl)phenyl)propanamide]: the 50% degradation concentration (DC50) was in the range of 5 to 15 nM and the Ymin result is recorded as “*** (30%<Y<80%)”.

With `C[C@@H]1CN(CCO[C@H]2CC[C@H](N3C(=S)N(c4cnc(C#N)c(C(F)(F)F)c4)C(=O)C3(C)C)CC2)C[C@H](C)N1CC(=O)Nc1ccc(C2CCC(=O)NC2=O)cc1` (stereo partly drawn) [Cmpd 6, 2-((2R,6S)-4-(2-((trans-4-(3-(6-Cyano-5-(trifluoromethyl)pyridin-3-yl)-5,5-dimethyl-4-oxo-2-thioxoimidazolidin-1-yl)cyclohexyl)oxy)ethyl)-2,6-dimethylpiperazin-1-yl)-N-(4-(2,6-dioxopiperidin-3-yl)phenyl)acetamide hydrochloride], the DC50 was at most 5 nM and the Ymin entry was “*** (30%<Y<80%)”.

Consider `CC[C@]1(c2ccc(NC(=O)CN3[C@H](C)CN(CCO[C@H]4CC[C@H](N5C(=S)N(c6ccc(C#N)c(C(F)(F)F)c6)C(=O)C5(C)C)CC4)C[C@@H]3C)cc2)CCC(=O)NC1=O` [Cmpd 7, 2-((2S,6R)-4-(2-((trans-4-(3-(4-Cyano-3-(trifluoromethyl)phenyl)-5,5-dimethyl-4-oxo-2-thioxoimidazolidin-1-yl)cyclohexyl)oxy)ethyl)-2,6-dimethylpiperazin-1-yl)-N-(4-((R)-3-ethyl-2,6-dioxopiperidin-3-yl)phenyl)acetamide hydrochloride], for which the DC50 was in the range of 100 to 10000 nM and the Ymin result is “*** (30%<Y<80%)”.

As to `CC[C@@]1(c2ccc(NC(=O)CN3[C@H](C)CN(CCO[C@H]4CC[C@H](N5C(=S)N(c6ccc(C#N)c(C(F)(F)F)c6)C(=O)C5(C)C)CC4)C[C@@H]3C)cc2)CCC(=O)NC1=O` [Cmpd 8, 2-((2S,6R)-4-(2-((trans-4-(3-(4-Cyano-3-(trifluoromethyl)phenyl)-5,5-dimethyl-4-oxo-2-thioxoimidazolidin-1-yl)cyclohexyl)oxy)ethyl)-2,6-dimethylpiperazin-1-yl)-N-(4-((S)-3-ethyl-2,6-dioxopiperidin-3-yl)phenyl)acetamide hydrochloride], the 50% degradation concentration (DC50) lay within 100 to 10000 nM and the Ymin entry is recorded as “*** (30%<Y<80%)”.

Regarding `C[C@@H]1CN(CCO[C@H]2CC[C@H](N3C(=S)N(c4cnc(C#N)c(Cl)c4)C(=O)C3(C)C)CC2)C[C@H](C)N1CC(=O)Nc1ccc(C2CCC(=O)NC2=O)cc1` (stereo partly drawn) [Cmpd 11, 2-((2R,6S)-4-(2-((trans-4-(3-(5-Chloro-6-cyanopyridin-3-yl)-5,5-dimethyl-4-oxo-2-thioxoimidazolidin-1-yl)cyclohexyl)oxy)ethyl)-2,6-dimethylpiperazin-1-yl)-N-(4-(2,6-dioxopiperidin-3-yl)phenyl)acetamide hydrochloride], the half-maximal degradation concentration (DC50) is at most 5 nM and the Ymin result is “** (20%<Y≤30%)”.

On to `C[C@@H]1CN(CCCO[C@H]2CC[C@H](N3C(=S)N(c4ccc(C#N)c(C(F)(F)F)c4)C(=O)C3(C)C)CC2)C[C@H](C)N1CC(=O)Nc1ccc(C2CCC(=O)NC2=O)cc1` (stereo partly drawn) [Cmpd 12, 2-((2R,6S)-4-(3-((trans-4-(3-(4-Cyano-3-(trifluoromethyl)phenyl)-5,5-dimethyl-4-oxo-2-thioxoimidazolidin-1-yl)cyclohexyl)oxy)propyl)-2,6-dimethylpiperazin-1-yl)-N-(4-(2,6-dioxopiperidin-3-yl)phenyl)acetamide hydrochloride], for which the DC50 is at most 5 nM and the Ymin entry is “** (20%<Y≤30%)”.

As to `C[C@@H]1CN(CCCO[C@H]2CC[C@H](N3C(=S)N(c4cnc(C#N)c(C(F)(F)F)c4)C(=O)C3(C)C)CC2)C[C@H](C)N1CC(=O)Nc1ccc(C2CCC(=O)NC2=O)cc1` (stereo partly drawn) [Cmpd 13, 2-((2R,6S)-4-(3-((trans-4-(3-(6-Cyano-5-(trifluoromethyl)pyridin-3-yl)-5,5-dimethyl-4-oxo-2-thioxoimidazolidin-1-yl)cyclohexyl)oxy)propyl)-2,6-dimethylpiperazin-1-yl)-N-(4-(2,6-dioxopiperidin-3-yl)phenyl)acetamide hydrochloride], the half-maximal degradation concentration (DC50) is at most 5 nM and the Ymin entry is listed as “** (20%<Y≤30%)”.
